Assay results as given in ChEMBL document CHEMBL3580659, “One-pot multicomponent synthesis of indole incorporated thiazolylcoumarins and their antibacterial, anticancer and DNA cleavage studies” (2015).

Assays:
Format in all cases: functional
[1] = test system: OVCAR-5; assay: Cytotoxicity against human OVCAR5 cells after 48 hrs by sulforhodamine B assay; details: OVCAR-5, 48 h
[2] = test system: UACC-62; assay: Cytotoxicity against human UACC62 cells assessed as cell growth level at 100 nM after 48 hrs by sulforhodamine B assay
[3] = test system: SK-MEL-28; assay: Cytotoxicity against human SK-MEL-28 cells assessed as cell growth level at 10 nM after 48 hrs by sulforhodamine B assay
[4] = test system: HT-29; assay: Cytotoxicity against human HT-29 cells assessed as cell growth level at 10 uM after 48 hrs by sulforhodamine B assay
[5] = test system: Malme-3M; assay: Cytotoxicity against human MALME-3M cells assessed as cell growth level at 10 uM after 48 hrs by sulforhodamine B assay
[6] = test system: HCC 2998; assay: Cytotoxicity against human HCC2998 cells after 48 hrs by sulforhodamine B assay; details: HCC 2998, 48 h
[7] = test system: HT-29; assay: Cytotoxicity against human HT-29 cells assessed as cell growth level at 100 uM after 48 hrs by sulforhodamine B assay
[8] = test system: IGROV-1; assay: Cytotoxicity against human IGROV1 cells assessed as cell growth level at 100 nM after 48 hrs by sulforhodamine B assay
[9] = test system: DU-145; assay: Cytotoxicity against human DU145 cells assessed as cell growth level at 10 nM after 48 hrs by sulforhodamine B assay
[10] = test system: COLO 205; assay: Cytotoxicity against human COLO205 cells assessed as cell growth level at 10 uM after 48 hrs by sulforhodamine B assay
[11] = test system: U-251; assay: Cytotoxicity against human U251 cells assessed as cell growth level at 10 uM after 48 hrs by sulforhodamine B assay
[12] = test system: LOX IMVI; assay: Cytotoxicity against human LOXIMVI cells assessed as cell growth level at 1 uM after 48 hrs by sulforhodamine B assay
[13] = test system: A549; assay: Cytotoxicity against human A549/ATCC cells assessed as cell growth level at 10 uM after 48 hrs by sulforhodamine B assay
[14] = test system: SNB-75; assay: Cytotoxicity against human SNB75 cells assessed as cell growth level at 10 uM after 48 hrs by sulforhodamine B assay
[15] = test system: IGROV-1; assay: Cytotoxicity against human IGROV1 cells assessed as cell growth level at 10 uM after 48 hrs by sulforhodamine B assay
[16] = Cytotoxicity against human NCI-ADR-RES cells assessed as cell growth level at 1 uM after 48 hrs by sulforhodamine B assay
[17] = test system: SF-539; assay: Cytotoxicity against human SF539 cells assessed as cell growth level at 10 nM after 48 hrs by sulforhodamine B assay
[18] = test system: SNB-75; assay: Cytotoxicity against human SNB75 cells after 48 hrs by sulforhodamine B assay; details: SNB-75, 48 h
[19] = test system: MCF7; assay: Cytotoxicity against human MCF7 cells assessed as cell growth level at 10 nM after 48 hrs by sulforhodamine B assay
[20] = test system: OVCAR-8; assay: Cytotoxicity against human OVCAR8 cells assessed as cell growth level at 10 nM after 48 hrs by sulforhodamine B assay
[21] = test system: PC-3; assay: Cytotoxicity against human PC3 cells assessed as cell growth level at 10 nM after 48 hrs by sulforhodamine B assay
[22] = test system: MOLT-4; assay: Cytotoxicity against human MOLT4 cells assessed as cell growth level at 10 uM after 48 hrs by sulforhodamine B assay
[23] = test system: SK-OV-3; assay: Cytotoxicity against human SKOV3 cells after 48 hrs by sulforhodamine B assay; details: SK-OV-3, 48 h
[24] = test system: MDA-MB-468; assay: Cytotoxicity against human MDA-MB-468 cells assessed as cell growth level at 10 uM after 48 hrs by sulforhodamine B assay
[25] = test system: T47D; assay: Cytotoxicity against human T47D cells assessed as cell growth level at 1 uM after 48 hrs by sulforhodamine B assay
[26] = test system: CAKI-1; assay: Cytotoxicity against human CAKI-1 cells assessed as cell growth level at 1 uM after 48 hrs by sulforhodamine B assay
[27] = test system: LOX IMVI; assay: Cytotoxicity against human LOXIMVI cells assessed as cell growth level at 10 nM after 48 hrs by sulforhodamine B assay
[28] = test system: SK-MEL-5; assay: Cytotoxicity against human SK-MEL-5 cells assessed as cell growth level at 100 uM after 48 hrs by sulforhodamine B assay
[29] = test system: Escherichia coli; assay: Antibacterial activity against Escherichia coli assessed as bacterial growth inhibition at 50 ug/ml after 24 hrs by cup-plate agar diffusion method; details: read-out: IZ
[30] = test system: HCC 2998; assay: Cytotoxicity against human HCC2998 cells assessed as cell growth level at 1 uM after 48 hrs by sulforhodamine B assay
[31] = test system: SF-295; assay: Cytotoxicity against human SF295 cells assessed as cell growth level at 1 uM after 48 hrs by sulforhodamine B assay
[32] = test system: SK-MEL-5; assay: Cytotoxicity against human SK-MEL-5 cells after 48 hrs by sulforhodamine B assay; details: SK-MEL-5, 48 h
[33] = test system: UO-31; assay: Cytotoxicity against human UO31 cells assessed as cell growth level at 10 uM after 48 hrs by sulforhodamine B assay
[34] = test system: NCI-H23; assay: Cytotoxicity against human NCI-H23 cells assessed as cell growth level at 1 uM after 48 hrs by sulforhodamine B assay
[35] = test system: HT-29; assay: Cytotoxicity against human HT-29 cells assessed as cell growth level at 100 nM after 48 hrs by sulforhodamine B assay
[36] = test system: SF-268; assay: Cytotoxicity against human SF268 cells assessed as cell growth level at 10 nM after 48 hrs by sulforhodamine B assay
[37] = test system: 786-0; assay: Cytotoxicity against human 786-0 cells assessed as cell growth level at 10 nM after 48 hrs by sulforhodamine B assay
[38] = test system: Malme-3M; assay: Cytotoxicity against human MALME-3M cells after 48 hrs by sulforhodamine B assay
[39] = read-out: LC50 (the source's name)
[40] = read-out: pLC50 (the source's name) (converted)

For `O=c1oc2ccccc2cc1-c1csc(N/N=C/c2c[nH]c3ccccc23)n1`, which GI50 ([1]; read-out: GI50) is on record?
The GI50 was 2.34 µM.

What about the CC50 [1, 39] of the same molecule?
Its CC50 is > 100 µM.

What about the TGI ([1]; read-out: TGI) of the same molecule?
Its TGI is 7.8 µM.

And the GI50 ([1]; read-out: pGI50 (converted))?
Its GI50 is 2.34 µM.

And the CC50 [1, 40]?
The CC50 was > 100 µM.

What about the TGI ([1]; read-out: pTGI (converted)) of the same molecule?
Its TGI is 7.76 µM.

And the Activity [2]?
The Activity was 96%.

What about the Activity [3] of the same molecule?
Its Activity is 94%.

What about the Activity [4] of the same molecule?
The Activity was 32.14%.

And the Activity [5]?
Its Activity is -10.02%.

What about the GI50 ([6]; read-out: GI50) of the same molecule?
Its GI50 is 2.82 µM.

What about the CC50 [6, 39] of the same molecule?
Its CC50 is > 100 µM.

What about the TGI ([6]; read-out: TGI) of the same molecule?
The TGI was 6.8 µM.

And the GI50 ([6]; read-out: pGI50 (converted))?
The GI50 was 2.82 µM.

What about the CC50 [6, 40] of the same molecule?
Its CC50 is > 100 µM.

And the TGI ([6]; read-out: pTGI (converted))?
Its TGI is 6.76 µM.

And the Activity [7]?
Its Activity is -81%.

What about the Activity [8] of the same molecule?
The Activity was 107%.

And the Activity [9]?
Its Activity is 95%.

What about the Activity [10] of the same molecule?
The Activity was 28.15%.

What about the Activity [11] of the same molecule?
The Activity was -6.38%.

What about the Activity [12] of the same molecule?
Its Activity is 74%.

What about the Activity [13] of the same molecule?
The Activity was -30.98%.

And the Activity [14]?
The Activity was 15.44%.

And the Activity [15]?
The Activity was 0.26%.

What about the Activity [16] of the same molecule?
The Activity was 104%.

What about the Activity [17] of the same molecule?
Its Activity is 95%.

What about the GI50 ([18]; read-out: GI50) of the same molecule?
Its GI50 is 2 µM.

And the CC50 [18, 39]?
Its CC50 is > 100 µM.

And the TGI ([18]; read-out: TGI)?
Its TGI is 8.92 µM.

What about the GI50 ([18]; read-out: pGI50 (converted)) of the same molecule?
The GI50 was 2 µM.

What about the CC50 [18, 40] of the same molecule?
The CC50 was > 100 µM.

And the TGI ([18]; read-out: pTGI (converted))?
Its TGI is 8.91 µM.

And the Activity [19]?
Its Activity is 98%.

And the Activity [20]?
The Activity was 104%.

And the Activity [21]?
The Activity was 105%.

What about the Activity [22] of the same molecule?
Its Activity is -32.32%.

What about the GI50 ([23]; read-out: GI50) of the same molecule?
Its GI50 is 3.95 µM.

What about the CC50 [23, 39] of the same molecule?
Its CC50 is > 100 µM.

And the TGI ([23]; read-out: TGI)?
Its TGI is > 100 µM.

What about the GI50 ([23]; read-out: pGI50 (converted)) of the same molecule?
Its GI50 is 3.98 µM.

What about the CC50 [23, 40] of the same molecule?
The CC50 was > 100 µM.

What about the TGI ([23]; read-out: pTGI (converted)) of the same molecule?
The TGI was 100 µM.

And the Activity [24]?
Its Activity is 2.39%.

What about the Activity [25] of the same molecule?
Its Activity is 81%.

What about the Activity [26] of the same molecule?
Its Activity is 88%.

What about the Activity [27] of the same molecule?
Its Activity is 91%.

And the Activity [28]?
Its Activity is -46%.

And the zone of inhibition at 50 µg/mL [29]?
The zone of inhibition at 50 µg/mL was 15 mm.

What about the Activity [30] of the same molecule?
Its Activity is 84%.

What about the Activity [31] of the same molecule?
The Activity was 80%.

And the GI50 ([32]; read-out: GI50)?
The GI50 was 2.09 µM.

What about the CC50 [32, 39] of the same molecule?
The CC50 was 15.2 µM.

And the TGI ([32]; read-out: TGI)?
Its TGI is 4.97 µM.

What about the GI50 ([32]; read-out: pGI50 (converted)) of the same molecule?
Its GI50 is 2.09 µM.

What about the CC50 [32, 40] of the same molecule?
Its CC50 is 15.1 µM.

What about the TGI ([32]; read-out: pTGI (converted)) of the same molecule?
The TGI was 5.01 µM.

And the Activity [33]?
Its Activity is -90.51%.

What about the Activity [34] of the same molecule?
The Activity was 83%.

What about the Activity [35] of the same molecule?
The Activity was 105%.

What about the Activity [36] of the same molecule?
The Activity was 96%.

And the Activity [37]?
The Activity was 86%.

And the GI50 ([38]; read-out: GI50)?
Its GI50 is 1.59 µM.

What about the CC50 [38, 39] of the same molecule?
Its CC50 is > 100 µM.

What about the TGI ([38]; read-out: TGI) of the same molecule?
Its TGI is 4.17 µM.

And the GI50 ([38]; read-out: pGI50 (converted))?
Its GI50 is 1.58 µM.

And the CC50 [38, 40]?
Its CC50 is > 100 µM.

What about the TGI ([38]; read-out: pTGI (converted)) of the same molecule?
Its TGI is 4.17 µM.
